# From patent US11273172B2, “Synergistic combination of oligonucleotides and chemotherapeutic for treating cancer” (THE BOARD OF TRUSTEES OF THE UNIVERSITY OF ILLINOIS, priority 2017, dated 2022)
# Assays:
# Assay in all cases: MTT cell death assay, chemotherapeutic with and without MADD siRNA knockdown
# Type in all cases: cell-based
# [1] = test system: AGS gastric adenocarcinoma cells; conditions: siRNA 10 nM
# Experimental: (§1) Cells are cultured and maintained at 37° C. in a humidified atmosphere containing 5% CO2 as described above. […] After 12-18 hours (Day 1), cells are transfected with Scramble or MADD siRNA at 10 nM concentration. The sequences of siRNAs (double-stranded) used are:
# (§2) On Day 4, when cells are properly adhered and retained their shape in 96-well plates, drugs are added. All drugs are diluted in complete media on the same day prior to the addition to the cells. In untreated cells, media is replaced with complete media. Two hundred μl volume of media (with or without drugs) is used for the drug treatment assay. Plates are incubated 24 hours, 48 hours and 72 hours at 37° C. in humidified CO2 incubator.
# (§3) An MTT assay is performed to determine relative survival after drug treatment as described above. MTT (3-[4,5-Dimethylthiazol-2-yl]-2,5-diphenyltetrazolium bromide; Thiazolyl blue) is purchased from Sigma Aldrich (Cat number: M5655). […] Ten μl of MTT solution is added per well of 96-well plate. Plates are incubated for 2 hours at 37° C. in the humidified CO2 incubator. After 2 hours, media is aspirated using vacuum inside the biosafety hood. Purple colored crystals formed in viable cells are dissolved by adding 100 μl of Dimethyl sulfoxide (Thermo Fisher Scientific; Cat number D128-500) Plates are kept on shaker for 10 minutes for compete dissolution of crystals and absorbance is recorded at 595 nm using Bio-Rad iMark microplate reader. Data is analyzed in MICROSOFT EXCEL® software. Relative survival is calculated with respect to absorbance of control (untreated cells) to determine the effect of transfection as well as combination treatment.
# (§4) Each data set takes into account any spontaneous cell death which is observed upon transfection with Scramble siRNA; the amount of spontaneous cell death from Scramble siRNA transfection (baseline) is subtracted from the amount of cell death observed in each siRNA transfection reaction to yield a Net Percent (Net %) cell death after accounting for Scrambled siRNA-induced cell death.
# (§5) Cells are cultured and maintained at 37° C. in a humidified atmosphere containing 5% CO2 as described above. […] After 12-18 hours (Day 1), cells are transfected with Scramble or MADD siRNA at 10 nM concentration. The sequences of siRNAs (double stranded) used are:
# as §3, with “D128-500).” for “D128-500)”
# as §2, with “24 h,” for “24 hours,”, “48 h” for “48 hours”
# [2] = test system: PLC/PRF/5 hepatic cancer cells; conditions: siRNA 10 nM
# Experimental: as §1, §2, §3, §4, §5
# as §3, with “D128-500).” for “D128-500)”
# as §2, with “24 h,” for “24 hours,”, “48 h” for “48 hours”
# [3] = test system: 8505C thyroid cancer cells; conditions: 8505C; Cisplatin 2.5 μM; siRNA 10 nM; 48 hours post Cisplatin treatment
# Experimental: as §5
# as §2, with “24 h,” for “24 hours,”, “48 h” for “48 hours”
# as §3, §4, §2
# [4] = test system: HTH7 thyroid cancer cells; conditions: siRNA 10 nM
# Experimental: as §5, §2, §3, §4
# H2227 lung cancer cells = conditions: siRNA 10 nM
# Experimental: (§6) Cells are cultured and maintained at 37° C. in a humidified atmosphere containing 5% CO2 as described above. On Day 0, Cells are seeded in […] tissue culture dishes (Corning; Cat Number: 353003) to attain 60-70% confluence. In parallel, cells are also seeded in one 96-well plate (Corning; Cat number: 353072) for analysis of survival before reseeding. After 12-18 hours (Day 1), cells are transfected with Scramble or MADD siRNA at 10 nM concentration. The sequences of siRNAs (double-stranded) used are:
# as §2
# (§7) An MTT assay is performed to determine relative survival after drug treatment as described above. MTT (3-[4,5-Dimethylthiazol-2-yl]-2,5-diphenyltetrazolium bromide; Thiazolyl blue) is purchased from Sigma Aldrich (Cat number: M5655). MTT is dissolved in sterile DPBS at the concentration of 5 mg/ml and filtered through […] syringe filter (Corning; Cat number: 431220). Ten μl of MTT solution is added per well of 96-well plate. Plates are incubated for 2 hours at 37° C. in the humidified CO2 incubator. After 2 hours, media is aspirated using vacuum inside the biosafety hood. Purple colored crystals formed in viable cells are dissolved by adding 100 μl of Dimethyl sulfoxide (Thermo Fisher Scientific; Cat number D128-500) Plates are kept on shaker for 10 minutes for compete dissolution of crystals and absorbance is recorded at 595 nm using Bio-Rad iMark microplate reader. Data is analyzed in MICROSOFT EXCEL® software. Relative survival is calculated with respect to absorbance of control (untreated cells) to determine the effect of transfection as well as combination treatment.
# as §4
# as §6, with “(double stranded)” for “(double-stranded)”
# as §2, with “added. Doxorubicin was added at a working concentration of 5.0 nM, 9.375 nM, 0.075 μM, 0.25 μM, 0.5 μM, and 0.8 μM.” for “added.”
# (§8) An MTT assay is performed to determine relative survival after drug treatment as described above. MTT (3-[4,5-Dimethylthiazol-2-yl]-2,5-diphenyltetrazolium bromide; Thiazolyl blue) is purchased from Sigma Aldrich (Cat number: M5655). MTT is dissolved in sterile DPBS at the concentration of 5 mg/ml and filtered through […] syringe filter (Corning; Cat number: 431220). Ten μl of MTT solution is added per well of 96-well plate. Plates are incubated for 2 hours at 37° C. in the humidified CO2 incubator. […]
# [5] = test system: K562 chronic myelogenous leukemia cells; conditions: siRNA 10 nM
# Experimental: as §6, §2, §7, §4
# as §6, with “(double stranded)” for “(double-stranded)”
# as §2, with “added. Doxorubicin was added at a working concentration of 5.0 nM, 9.375 nM, 0.075 μM, 0.25 μM, 0.5 μM, and 0.8 μM.” for “added.”
# as §8
# [6] = test system: SU.86.86 pancreatic cancer cells; conditions: Doxorubicin 5 nM, siRNA 10 nM, 24 hours post Doxorubicin treatment
# Experimental: as §6, §2, §7, §4
# as §6, with “(double stranded)” for “(double-stranded)”
# as §2, with “added. Doxorubicin was added at a working concentration of 5.0 nM, 9.375 nM, 0.075 μM, 0.25 μM, 0.5 μM, and 0.8 μM.” for “added.”
# as §8
# [7] = test system: JIMT1 breast cancer cells; conditions: Doxorubicin 0.075 μM, siRNA 10 nM, 24 hours post Doxorubicin treatment
# Experimental: as §6, with “(double stranded)” for “(double-stranded)”
# as §2, with “added. Doxorubicin was added at a working concentration of 5.0 nM, 9.375 nM, 0.075 μM, 0.25 μM, 0.5 μM, and 0.8 μM.” for “added.”
# as §7, with “D128-500).” for “D128-500)”
# as §4
# [8] = test system: N87 gastric carcinoma cells; conditions: Doxorubicin 0.8 μM, siRNA 10 nM, 72 hours post Doxorubicin treatment
# Experimental: as §6, with “(double stranded)” for “(double-stranded)”
# as §2, with “added. Doxorubicin was added at a working concentration of 5.0 nM, 9.375 nM, 0.075 μM, 0.25 μM, 0.5 μM, and 0.8 μM.” for “added.”
# as §7, with “D128-500).” for “D128-500)”
# as §4
# H522 lung cancer cells = conditions: Gemcitabine 8.2 nM, siRNA 10 nM, 48 hours post Gemcitabine treatment
# Experimental: as §6, §2, §7, §4
# as §6, with “(double stranded)” for “(double-stranded)”
# as §7, with “D128-500).” for “D128-500)”, “Relative survival is calculated with respect to absorbance of control (untreated cells) to determine the effect of transfection as well as combination treatment.” left out
# [9] = test system: OVCAR3 ovarian cancer cells; conditions: siRNA 10 nM
# Experimental: as §6, §2, §7, §4
# as §6, with “(double stranded)” for “(double-stranded)”
# as §7, with “D128-500).” for “D128-500)”, “Relative survival is calculated with respect to absorbance of control (untreated cells) to determine the effect of transfection as well as combination treatment.” left out
# [10] = 5-flurouracil 25 μM, 72 hours post 5-flurouracil treatment
# [11] = Cisplatin 1.875 μM, 24 hours post Cisplatin treatment
# [12] = Cisplatin 1.25 μM, 72 hours post Cisplatin treatment
# [13] = Cisplatin 5 μM, 24 hours post Cisplatin treatment
# [14] = Doxorubicin 9.375 nM, 48 hours post Doxorubicin treatment
# [15] = Doxorubicin 0.25 μM, 72 hours post Doxorubicin treatment
# [16] = Doxorubicin 0.5 μM, 48 hours post Doxorubicin treatment
# [17] = Gemcitabine 25 nM, 48 hours post Gemcitabine treatment
# [18] = Gemcitabine 1 μM, 48 hours post Gemcitabine treatment
# [19] = Gemcitabine 0.03125 μM, 24 hours post Gemcitabine treatment
# [20] = Gemcitabine 0.1 μM, 48 hours post Gemcitabine treatment
structure (smiles),measurement,setting,value
O=c1[nH]cc(F)c(=O)[nH]1 [5-flurouracil],Net % cell death after accounting for Scrambled siRNA,[1]; [10],22%
same,Observed % Cell death,[1]; [10],22%
N.N.[Cl][Pt][Cl] [Cisplatin],Net % cell death after accounting for Scrambled siRNA,[2]; [11],41%
same,Observed % Cell death,[2]; [11],41%
same,Net % cell death after accounting for Scrambled siRNA,[3],19%
same,Observed % Cell death,[3],19%
same,Net % cell death after accounting for Scrambled siRNA,[4]; [12],0%
same,Observed % Cell death,[4]; [12],0%
same,Net % cell death after accounting for Scrambled siRNA,[4]; [13],13%
same,Observed % Cell death,[4]; [13],13%
COc1cccc2c1C(=O)c1c(O)c3c(c(O)c1C2=O)C[C@@](O)(C(=O)CO)C[C@@H]3O[C@H]1C[C@H](N)[C@H](O)[C@H](C)O1 [Doxorubicin],Net % cell death after accounting for Scrambled siRNA,H2227 lung cancer cells; [14],3%
same,Observed % Cell death,H2227 lung cancer cells; [14],3%
same,Net % cell death after accounting for Scrambled siRNA,[5]; [15],11%
same,Observed % Cell death,[5]; [15],11%
same,Net % cell death after accounting for Scrambled siRNA,[5]; [16],0%
same,Observed % Cell death,[5]; [16],0%
same,Net % cell death after accounting for Scrambled siRNA,[6],36%
same,Observed % Cell death,[6],36%
same,Net % cell death after accounting for Scrambled siRNA,[7],17%
same,Observed % Cell death,[7],17%
same,Net % cell death after accounting for Scrambled siRNA,[8],38%
same,Observed % Cell death,[8],38%
Nc1ccn([C@@H]2O[C@H](CO)[C@@H](O)C2(F)F)c(=O)n1 [Gemcitabine],Net % cell death after accounting for Scrambled siRNA,H2227 lung cancer cells; [17],15%
same,Observed % Cell death,H2227 lung cancer cells; [17],15%
same,Net % cell death after accounting for Scrambled siRNA,[1]; [18],38%
same,Observed % Cell death,[1]; [18],38%
same,Net % cell death after accounting for Scrambled siRNA,[2]; [19],1%
same,Observed % Cell death,[2]; [19],1%
same,Net % cell death after accounting for Scrambled siRNA,H522 lung cancer cells,4%
same,Observed % Cell death,H522 lung cancer cells,4%
same,Observed % Cell death,"[9]; Gemcitabine 0.0125 μM, 72 hours post Gemcitabine treatment",19%
same,Net % cell death after accounting for Scrambled siRNA,[9]; [20],28%
same,Observed % Cell death,[9]; [20],28%
